The values below come from publication PMC9191647 (Neuropharmacology, 2019).

One series concerns the target 5-HT2A. Conditions: ref Johnson et al., 1994, cited from earlier work; for Ki: human 5-HT2A receptor vs. [^3H] ketanserin.
Series [1] deals with male C57BL/6J mice. Conditions: HTR, cited from earlier work; for ED50 μg/kg (95% CI): hemitartrate (2:1) salt.
For a further series, the target named is human 5-HT2A receptor (Homo sapiens, UniProt P28223). Kind of series: Competitive radioligand binding.
In a further series the target is human 5-HT2B (h5-HT2B) (Homo sapiens, UniProt P41595). Kind of series: Gq-mediated calcium flux in Flp-In T-REx 293 cells. The series is classed as cell-based. The conditions noted are these: for agonist activity: Ca^2+ flux. A general note: Calcium flux is commonly read through the fluorescence of an indicator in the cells.
For a further series, the target named is T1, human 5-HT1A receptor (Homo sapiens, UniProt P08908).
T1 sequence (P08908 1-422): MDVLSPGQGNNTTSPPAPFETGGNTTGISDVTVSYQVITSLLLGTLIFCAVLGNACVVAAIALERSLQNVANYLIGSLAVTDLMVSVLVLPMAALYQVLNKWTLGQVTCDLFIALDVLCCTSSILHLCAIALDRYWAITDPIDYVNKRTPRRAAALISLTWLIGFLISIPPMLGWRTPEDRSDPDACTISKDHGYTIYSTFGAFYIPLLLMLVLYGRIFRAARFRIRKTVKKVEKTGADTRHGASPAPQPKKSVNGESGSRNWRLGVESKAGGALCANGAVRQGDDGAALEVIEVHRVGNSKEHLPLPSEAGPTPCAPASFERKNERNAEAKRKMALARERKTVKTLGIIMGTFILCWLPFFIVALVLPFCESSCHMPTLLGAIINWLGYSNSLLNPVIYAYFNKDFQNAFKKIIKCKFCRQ
Description: Competitive radioligand binding. The conditions noted are these: for fold lower affinity than LSD for the 5-HT1A receptor: human 5-HT1A, relative to LSD.

For another series, the target named is human 5-HT2A (h5-HT2A) (Homo sapiens, UniProt P28223). Description: Gq-mediated calcium flux in Flp-In T-REx 293 cells. Conditions: for EC50: Ca^2+ flux; for Emax % 5-HT: percent 5-HT maximum response. The series is classed as cell-based.
In series [2] the target is T2, human 5-HT2C INI (h5-HT2C) (Homo sapiens, UniProt P28335).
T2 sequence (P28335 33-458): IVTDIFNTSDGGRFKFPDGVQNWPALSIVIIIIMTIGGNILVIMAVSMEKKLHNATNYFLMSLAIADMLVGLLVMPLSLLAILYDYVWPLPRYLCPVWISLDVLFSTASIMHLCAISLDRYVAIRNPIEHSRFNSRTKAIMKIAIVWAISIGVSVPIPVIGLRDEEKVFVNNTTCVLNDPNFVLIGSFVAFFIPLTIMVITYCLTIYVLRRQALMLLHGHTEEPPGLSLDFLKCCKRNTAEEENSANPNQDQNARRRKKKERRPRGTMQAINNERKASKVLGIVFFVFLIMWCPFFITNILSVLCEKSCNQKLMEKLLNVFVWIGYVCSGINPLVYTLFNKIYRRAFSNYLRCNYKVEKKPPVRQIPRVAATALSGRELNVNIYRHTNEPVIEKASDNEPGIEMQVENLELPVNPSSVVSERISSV
Format: cell-based. The conditions noted are these: h5-HT2C, Ca^2+ flux.

The next series has as its target T3, human 5-HT2C receptor (Homo sapiens, UniProt P28335).
T3 sequence (P28335 33-458): T2 sequence (P28335 33-458)
Kind of series: biochemical. Format: binding.

For a further series, the target named is mouse 5-HT2A (m5-HT2A) (Mus musculus, UniProt P35363). Kind of series: Gq-mediated calcium flux in Flp-In T-REx 293 cells. Format: cell-based. The conditions noted are these: for Emax % 5-HT: percent 5-HT maximum response.
The test system of the next series is human subjects. The conditions noted are these: humans, cited from earlier work; for active doses: ref Rothlin (1957).
For series [3] the following is noted: cited from earlier work.
The test system of series [4] is male C57BL/6J mice. Kind of series: Head-twitch response. Format: in vivo, mouse. Conditions: for HTR Counts (mean ± SEM): 30 min session; for HTR induced by ALD-52 after M100,907 pretreatment: 0.1 mg/kg M100,907 SC pretreatment, then 0.3 mg/kg ALD-52; for ED50: Mus musculus.
The next series has as its system mice. The conditions noted are these: quantal scoring; ref Corne and Pickering (1967); cited from earlier work.
The mark [5] stands for this setting: ref Halberstadt and Geyer (2013).

Broadly, the Ki is a measure of affinity in units of concentration, obtained from inhibition or displacement. Usually EC50 stands for the concentration at which the effect is half-maximal.

Values joined by “and” are separate entries in the source; they are usually repeats but may differ in a detail not shown here. Identical values can stand only once. Like-named read-outs stand apart in the source and are kept apart here.

Sequence of human 5-HT2B (h5-HT2B) (P41595 whole entry): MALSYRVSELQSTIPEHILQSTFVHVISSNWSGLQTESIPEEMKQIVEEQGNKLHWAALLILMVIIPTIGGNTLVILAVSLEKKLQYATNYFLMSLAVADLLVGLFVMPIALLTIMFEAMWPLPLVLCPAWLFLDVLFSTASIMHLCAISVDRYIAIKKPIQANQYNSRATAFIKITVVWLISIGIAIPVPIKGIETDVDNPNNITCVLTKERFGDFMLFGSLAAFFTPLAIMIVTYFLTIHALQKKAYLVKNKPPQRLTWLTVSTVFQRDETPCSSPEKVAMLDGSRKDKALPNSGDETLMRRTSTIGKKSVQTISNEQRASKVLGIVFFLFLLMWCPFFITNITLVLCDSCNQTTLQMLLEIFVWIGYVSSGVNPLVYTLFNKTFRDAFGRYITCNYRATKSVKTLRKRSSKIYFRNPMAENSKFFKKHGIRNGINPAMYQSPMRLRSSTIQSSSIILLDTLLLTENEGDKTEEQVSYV
Sequence of human 5-HT2A (h5-HT2A) (P28223 whole entry): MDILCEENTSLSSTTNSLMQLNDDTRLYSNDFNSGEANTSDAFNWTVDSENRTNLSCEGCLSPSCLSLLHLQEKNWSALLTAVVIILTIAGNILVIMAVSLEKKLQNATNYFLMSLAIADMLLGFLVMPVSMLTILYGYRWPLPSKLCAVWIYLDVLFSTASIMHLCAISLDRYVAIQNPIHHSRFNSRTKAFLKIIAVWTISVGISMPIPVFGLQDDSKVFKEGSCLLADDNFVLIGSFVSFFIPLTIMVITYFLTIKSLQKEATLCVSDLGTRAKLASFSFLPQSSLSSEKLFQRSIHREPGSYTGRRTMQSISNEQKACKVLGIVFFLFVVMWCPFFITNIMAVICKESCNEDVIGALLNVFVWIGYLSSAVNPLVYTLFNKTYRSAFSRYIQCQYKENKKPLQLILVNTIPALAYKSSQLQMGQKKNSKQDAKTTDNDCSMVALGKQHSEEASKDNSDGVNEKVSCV
Sequence of mouse 5-HT2A (m5-HT2A) (P35363 whole entry): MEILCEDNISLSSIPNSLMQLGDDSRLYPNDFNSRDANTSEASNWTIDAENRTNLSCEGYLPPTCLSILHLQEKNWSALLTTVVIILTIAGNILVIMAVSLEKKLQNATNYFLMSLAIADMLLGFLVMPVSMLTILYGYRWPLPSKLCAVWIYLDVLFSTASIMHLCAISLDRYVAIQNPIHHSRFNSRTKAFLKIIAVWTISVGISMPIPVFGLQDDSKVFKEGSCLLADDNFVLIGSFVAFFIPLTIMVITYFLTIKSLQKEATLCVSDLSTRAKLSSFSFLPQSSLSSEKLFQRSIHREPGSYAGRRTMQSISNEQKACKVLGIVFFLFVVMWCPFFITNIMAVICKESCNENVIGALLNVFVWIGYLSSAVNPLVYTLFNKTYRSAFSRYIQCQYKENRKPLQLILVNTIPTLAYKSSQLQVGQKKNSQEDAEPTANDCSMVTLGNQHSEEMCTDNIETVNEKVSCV
Sequence of human 5-HT2A receptor (P28223 whole entry): as the sequence (P28223 whole entry) above

For `CC(C)n1cc2c3c(cccc31)[C@H]1C[C@@H](C(=O)NC3CCCCC3)CN(C)[C@@H]1C2` [amersergide], the Ki on 5-HT2A is 16.2 nM. Further, the “fold lower affinity than LY193525” value with 5-HT2A (human 5-HT2A receptor) is on record as ~ 20 fold.
For the compound `CCC(=O)n1cc2c3c(cccc31)C1=C[C@@H](C(=O)N(CC)CC)CN(C)[C@@H]1C2` [1P-LSD, 1-propanoyl-D-lysergic acid diethylamide], the “ED50 μg/kg (95% CI)” value in the series with male C57BL/6J mice [1] (ref Brandt et al. (2016)) was 158.9 (65.0–388.8) μg/kg. Also, the “ED50 nmol/kg (95% CI)” value in the series on male C57BL/6J mice [1] (ref Brandt et al. (2016)) is on record as 349.6 (143.0–855.4) nmol/kg. Moreover, the “Molar potency (relative to LSD)” value is “one-third” with male C57BL/6J mice [1] (ref Brandt et al. (2016)) and 0.38 in the series with male C57BL/6J mice [1] (ref Brandt et al. (2016), listed as 1-Propanoyl-LSD). Besides, the results for the Ki on human 5-HT2A receptor, at human 5-HT1A receptor and on human 5-HT2C receptor were 196 ± 19 nM, 637 ± 97 nM and 13 ± 1.7 nM, respectively. Moreover, the agonist activity entry (at human 5-HT2B (h5-HT2B); in series [2]) was “no agonist activity” each time. For the same compound, the “fold lower affinity than LSD for the 5-HT1A receptor” value on human 5-HT1A receptor was 67 fold. Also, the EC50 at human 5-HT2A (h5-HT2A) (EC50, nM) is 11 nM; on human 5-HT2A (h5-HT2A) (pEC50 ± SEM) it was 10.2 nM. Further, the “Emax % 5-HT” value was 11 % 5-HT and 11 ± 1 % 5-HT on human 5-HT2A (h5-HT2A); 23 ± 1 % 5-HT at mouse 5-HT2A (m5-HT2A).
With `CCN(CC)C(=O)[C@@H]1C=C2c3cccc4[nH]cc(c34)C[C@H]2N(C)C1` [LSD, D-lysergic acid diethylamide, reference compound], in the series with male C57BL/6J mice [1] (setting [5]), the “ED50 μg/kg (95% CI)” value is listed as 52.9 (38.9–72.0) μg/kg. Moreover, the “ED50 nmol/kg (95% CI)” value in the series with male C57BL/6J mice [1] (setting [5]) is given as 132.8 (97.6–180.7) nmol/kg. For the same compound, in the series on human subjects, the active doses is 0.0005 to 0.001 mg/kg. In addition, the “Emax % 5-HT” value at human 5-HT2B (h5-HT2B) (percent 5-HT maximum response, N.A. = No Activity) was 78 ± 2 % 5-HT; at human 5-HT2A (h5-HT2A) it was 94 % 5-HT and 94 ± 1 % 5-HT; on mouse 5-HT2A (m5-HT2A), 86 ± 3 % 5-HT. In addition, the “peak plasma level of LSD” value in [3] (humans, intravenous 2 μg/kg LSD, ref Aghajanian and Bing (1964)) was 9.5 ng/mL. For the same compound, the LSD in plasma in series [3] (participants who had ingested 200 μg, ref Dolder et al., 2016) is 4.5 ng/mL. The EC50 at mouse 5-HT2A (m5-HT2A) (Ca^2+ flux) was 4.25 nM. At mouse 5-HT2A (m5-HT2A) (Ca^2+ flux), the “pEC50 ± SEM” value was found to be 8.37 ± 0.10.
For `CCN(CC)C(=O)[C@@H]1C=C2c3cccc4c3c(cn4C(C)=O)C[C@H]2N(C)C1` [ALD-52, 1-Acetyl-D-lysergic acid diethylamide], the “HTR Counts (mean ± SEM)” value is 8.4 ± 1.6 in the series on male C57BL/6J mice [4] (0.03 mg/kg IP), 12.6 ± 1.1 in the series on male C57BL/6J mice [4] (0.1 mg/kg IP) and 25.4 ± 3.2 in the series on male C57BL/6J mice [4] (0.3 mg/kg IP). Besides, in the series on male C57BL/6J mice [4], the “HTR induced by ALD-52 after M100,907 pretreatment” value is reported as “did not induce head twitches”. Besides, the “Molar potency (relative to LSD)” value in the series on male C57BL/6J mice [4] (HTR) was determined as 0.45. Moreover, the ED50 with male C57BL/6J mice [4] (read-out: ED50 nmol/kg (95% CI)) amounted to 297 nmol/kg; with male C57BL/6J mice [4] (read-out: ED50 μg/kg (95% CI)), 131 µg/kg. In addition, the Ki at human 5-HT2A receptor came out at 174 ± 43 nM; at human 5-HT1A receptor it was 1050 nM; at human 5-HT2C receptor it was 10.2 ± 3.5 nM. Also, the “potency relative to LSD” value with human subjects (ref Abramson (1959)) is on record as 91%; with human subjects (ref Isbell et al. (1959)), “equipotent”. For the same compound, the active doses in the series with human subjects was 0.0005 to 0.001 mg/kg. The agonist activity entry (on human 5-HT2B (h5-HT2B); in series [2]) was “no agonist activity” each time. Also, on human 5-HT1A receptor, the “fold lower affinity than LSD for the 5-HT1A receptor” value is given as 111 fold. Besides, the EC50 at human 5-HT2A (h5-HT2A) (EC50, nM) was 38 nM; on human 5-HT2A (h5-HT2A) (pEC50 ± SEM), 35.5 nM; on mouse 5-HT2A (m5-HT2A) (EC50, nM, Ca^2+ flux) it was 12 nM; on mouse 5-HT2A (m5-HT2A) (pEC50 ± SEM, Ca^2+ flux), 11.5 nM. The “Emax % 5-HT” value at human 5-HT2A (h5-HT2A) is 25 % 5-HT and 25 ± 2 % 5-HT; on mouse 5-HT2A (m5-HT2A) it was 29 ± 1 % 5-HT. Further, the “induction of head twitches in mice” value in the series with mice is listed as “does not induce head twitches”.
In the case of `COc1cccc([C@H](O)C2CCN(CCc3ccc(F)cc3)CC2)c1OC` [M100,907, reference compound], the “HTR induced by ALD-52 after M100,907 pretreatment” value with male C57BL/6J mice [4] is reported as “blocked”.
For `CN1C[C@H](C(=O)NC2CCCCC2)C[C@@H]2c3cccc4[nH]cc(c34)C[C@H]21` [LY193525], the Ki on 5-HT2A is 0.73 nM.
